Target: T1, μ-opioid receptor (Homo sapiens, UniProt P35372)
T1 construct: expressed in transfected cells; host or cells: HEK-293
Test: μ-opioid receptor [35S]GTPγS functional assay
Type: biochemical
Conditions: HEK-293 cells; for Emax: maximal effect relative to DAMGO
Experimental: [^35S]GTPγS functional assays were conducted using freshly thawed μ-receptor membranes prepared in-house from a cell line expressing recombinant μ opioid receptor in a HEK-293, CHO or U-2 OS cell background, or purchased from a commercial source (Perkin Elmer, Shelton, Conn.; or DiscovRx, Fremont, Calif.). Assay reactions were prepared by sequentially adding the following reagents to binding buffer (100 mM NaCl, 10 mM MgCl2, 20 mM HEPES, pH 7.4) on ice (final concentrations indicated): membrane protein (0.026 mg/mL), saponin ([…]), GDP ([…]) and [^35S]GTPγS (0.20 nM; Perkin Elmer, Shelton, Conn.). The prepared membrane solution (190 μl/well) was transferred to 96-shallow well polypropylene plates containing 10 μl of 20× concentrated stock solutions of the agonist [D-Ala^2, N-methyl-Phe^4 Gly-ol^5]-enkephalin (DAMGO) prepared in dimethyl sulfoxide (DMSO). Plates were incubated for 30 min at about 25° C. with shaking. Reactions were terminated by rapid filtration onto 96-well Unifilter GF/B filter plates (Perkin Elmer, Shelton, Conn.) using a 96-well tissue harvester (Perkin Elmer, Shelton, Conn.) followed by three filtration washes with 200 μl of ice-cold wash buffer (10 mM NaH2PO4, 10 mM Na2HPO4, pH 7.4). Filter plates were subsequently dried at 50° C. for 2-3 hours. BetaScint scintillation cocktail (Perkin Elmer, Shelton, Conn.) was added (50 μl/well) and plates were counted using a Packard Top-Count for 1 min/well. Data were analyzed using the sigmoidal dose-response curve fitting functions in GraphPad PRISM v. 3.0, or an in-house function for non-linear, sigmoidal dose-response curve-fitting.
μ GTP EC50 is the concentration of a compound providing 50% of the maximal response for the compound at a μ-opioid receptor.
μ GTP Emax (%) is the maximal effect elicited by a compound relative to the effect elicited by DAMGO, a standard agonist. Generally, the μ GTP Emax (%) value measures the efficacy of a compound to treat or prevent pain or other Conditions.
In TABLE 1, activity response of certain Compounds of the Invention to the μ-opioid receptors was determined as described above for functional assays using HEK-293 cells.

[1] = membranes with recombinant μ opioid receptor
[2] = cell prints μM under an nM head

T1 sequence (P35372 whole entry, species assumed): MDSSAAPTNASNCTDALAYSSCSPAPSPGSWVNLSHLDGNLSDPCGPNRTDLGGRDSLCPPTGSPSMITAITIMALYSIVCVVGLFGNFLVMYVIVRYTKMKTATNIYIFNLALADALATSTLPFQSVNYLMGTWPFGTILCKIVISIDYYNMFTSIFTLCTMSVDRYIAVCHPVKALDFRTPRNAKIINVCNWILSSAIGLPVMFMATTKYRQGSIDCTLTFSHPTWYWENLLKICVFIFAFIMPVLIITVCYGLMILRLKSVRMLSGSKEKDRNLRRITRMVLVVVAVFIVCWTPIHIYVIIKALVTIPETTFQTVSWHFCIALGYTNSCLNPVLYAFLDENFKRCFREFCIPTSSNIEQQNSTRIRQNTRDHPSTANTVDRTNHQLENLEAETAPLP

| Structure (SMILES) | Emax [%] | EC50 [1] [µM] | EC50 [2] [µM] |
| --- | --- | --- | --- |
| CC(=O)N1CC[C@]23CCN(C)[C@H](Cc4ccc(O)cc42)[C@@H]3C1 [Compound 29, 1-((4aS,5R,10bS)-9-hydroxy-13-methyl-1,2,4,4a,5,6-hexahydro-3H-5,10b-(epiminoethano)benzo[f]isoquinolin-3-yl)ethan-1-one] | 64.7 ± 4.63 | 0.298 ± 0.0278 |  |
| CC(C)C(=O)N1CC[C@]23CCN(C)[C@H](Cc4ccc(O)cc42)[C@@H]3C1 [Compound 30, 1-((4aS,5R,10bS)-9-hydroxy-13-methyl-1,2,4,4a,5,6-hexahydro-3H-5,10b-(epiminoethano)benzo[f]isoquinolin-3-yl)-2-methylpropan-1-one] | 37.2 ± 1.18 | 0.733 ± 0.0407 |  |
| CN1CC[C@]23CCN(C)[C@H](Cc4ccc(O)cc42)[C@@H]3C1 [Compound 32, (4aS,5R,10bR)-3,13-dimethyl-2,3,4,4a,5,6-hexahydro-1H-5,10b-(epiminoethano)benzo[f]isoquinolin-9-ol] | 71.7 ± 3.18 | 1.07 ± 0.14 |  |
| CN1CC[C@]23CCN(C(=O)C4CC4)C[C@H]2[C@H]1Cc1ccc(O)cc13 [Compound 31, Cyclopropyl ((4aS,5R,10bS)-9-hydroxy-13-methyl-1,2,4,4a,5,6-hexahydro-3H-5,10b-(epiminoethano)benzo[f]isoquinolin-3-yl)methanone] | 49 ± 1.53 | 0.725 ± 0.0265 |  |
| CN1CC[C@]23CC(=O)N(Cc4ccccc4)C[C@H]2[C@H]1Cc1ccc(O)cc13 [Compound 28] | 58.7 ± 4.84 | 2.73 ± 0.392 |  |
| CN1CC[C@]23CCN(CC4CC4)C[C@H]2[C@H]1Cc1ccc(O)cc13 [Compound 27, (4aS,5R,10bR)-3-(cyclopropylmethyl)-13-methyl-2,3,4,4a,5,6-hexahydro-1H-5,10b-(epiminoethano)benzo[f]isoquinolin-9-ol] | 44.4 ± 2.5 | 14 ± 1.94 |  |
| COc1ccc(CN2CC[C@]34CCN(C)[C@H](Cc5ccc(OC)cc53)[C@@H]4C2)cc1 [Compound 9, (4aS,5R,10bR)-9-methoxy-3-(4-methoxybenzyl)-13-methyl-2,3,4,4a,5,6-hexahydro-1H-5,10b-(epiminoethano)benzo[f]isoquinoline] | 28.7 ± 1.45 |  | > 20 |
| COc1ccc2c(c1)[C@]13CCN(C)[C@H](C2)[C@@H]1CNC(=O)C3 [Compound 11, (4aS,5R,10bS)-9-methoxy-13-methyl-4,4a,5,6-tetrahydro-1H-5,10b-(epiminoethano)benzo[f]isoquinolin-2(3H)-one] | 57.8 ± 2.68 |  | > 20 |
| CN1CC[C@]23CCN(Cc4ccc(O)cc4)C[C@H]2[C@H]1Cc1ccc(O)cc13 [Compound 23, (4aS,5R,10bR)-3-(4-hydroxybenzyl)-13-methyl-2,3,4,4a,5,6-hexahydro-1H-5,10b-(epiminoethano)benzo[f]isoquinolin-9-ol] | 51.7 ± 2.85 | 1.59 ± 0.0616 |  |
| CN1CC[C@]23CCNC[C@H]2[C@H]1Cc1ccc(O)cc13 [Compound 25, (4aS,5R,10bR)-13-methyl-2,3,4,4a,5,6-hexahydro-1H-5,10b-(epiminoethano)benzo[f]isoquinolin-9-ol] | 43.7 ± 1.45 | 8.36 ± 0.929 |  |
| CN1CC[C@]23CC(=O)N(CC4CC4)C[C@H]2[C@H]1Cc1ccc(O)cc13 [Compound 26] | 67.7 ± 1.2 | 0.881 ± 0.183 |  |
| COc1ccc(CN2C[C@H]3[C@H]4Cc5ccc(OC)cc5[C@@]3(CCN4C)CC2=O)cc1 [Compound 8, (4aS,5R,10bS)-9-methoxy-3-(4-methoxybenzyl)-13-methyl-4,4a,5,6-tetrahydro-1H-5,10b-(epiminoethano)benzo[f]isoquinolin-2(3H)-one] | 70.3 ± 1.67 |  | > 20 |
| CN1CC[C@]23CCN(C(=O)Nc4ccccc4)C[C@H]2[C@H]1Cc1ccc(O)cc13 [Compound 33, (4aS,5R,10bS)-9-hydroxy-13-methyl-N-phenyl-1,2,4,4a,5,6-hexahydro-3H-5,10b-(epiminoethano)benzo[f]isoquinoline-3-carboxamide] | 54.7 ± 8.35 | 0.152 ± 0.00519 |  |
| CN1CC[C@]23CC(=O)NC[C@H]2[C@H]1Cc1ccc(O)cc13 [Compound 24, (4aS,5R,10bS)-9-hydroxy-13-methyl-4,4a,5,6-tetrahydro-1H-5,10b-(epiminoethano)benzo[f]isoquinolin-2(3H)-one] | 52 ± 2.08 | 1.38 ± 0.104 |  |

— patent US10202382B2 (Purdue Pharma L.P., priority 2014, dated 2019)
